US20250320203A1, “4-(3H-PYRAZOLO[4,3-F]QUINOLIN-7-YL)-N-(2-(DIMETHYLAMINO)ETHYL)BENZAMIDE- OR HYDROXAMIC ACID COMPOUNDS, COMPOSITIONS, AND METHODS OF USE” (Purdue Research Foundation, priority 2022, published 2025)

Legend:
phosphorylated FLT3 = assay: Western blot, FLT3 target engagement in Molm-14 cells; assay type: cell-based, human; details: Molm-14 cells treated for 2 hours
Procedure: Acute myeloid leukemia cells (Molm-14) were incubated with various concentrations of compound as specified. Cells were collected and lysed, and protein concentrations were quantified relative to BSA standards. After protein denaturation, proteins were separated via SDS-PAGE electrophoresis and transferred to NC membranes. After blocking, overnight incubation with specific primary antibodies, and room temperature incubation for 2 hours with peroxidase-conjugated secondary antibodies, peroxidase activity was detected with SuperSignal West Pico reagents (Thermo Scientific) using a CCD camera LAS-4000 (Fujifilm). Bands were normalized using housekeeping gene, Actin. Values reported represent the means of triplicates and error bars represent SD. All specific antibodies were purchased from Cell Signaling.
Additionally, FLT3 target engagement in Molm-14 cells was evaluated to confirm the FLT3 inhibition seen in the preliminary kinase screen of Example 4 (Table 1). Cells were treated for 2 hours, harvested, and subsequently analyzed.

Molm 14-ITD-D835Y = assay: Cell viability GI50, Molm 14-ITD-D835Y; assay type: cell-based; details: Homo sapiens; 72 hours
Procedure: (§1) More specifically, cells were cultured to confluence in RPMI medium supplemented with 10% fetal bovine serum and 1× Penicillin-Streptomycin (Gibco™). Cells were plated at 5,000 cells/well in 96 well plates. After 24-hour incubation at 37° C. in a 5% CO2 incubator, compounds diluted in the same media were added to the indicated final concentration and allowed to incubate at 37° C. in a 5% CO2 incubator for 72 hours. Viability was determined using CellTiter-Blue® Cell Viability Assay (Promega, Madison, WI) with absorbance readings at 570 nm performed on a Cytation™ 5 Cell Imaging Multi-Mode Reader (BioTek) 3 hours after addition. Appropriate vehicle and cell-free controls were included. GI50 readings were confirmed by two scientists on two separate days.
(§2) Scholl et al. (2020), supra. Accordingly, Compound HSK205 was evaluated against Molm-14 cell lines that harbor resistant mutations commonly found in the clinic, FLT3-ITD-D835Y and F691L (FIG. 15).

FLT3-D835Y = target: T1, FLT3-D835Y (Homo sapiens, UniProt P36888, D835Y); assay: FLT3 (D835Y) enzyme inhibition, 10-dose IC50 (Reaction Biology); assay type: biochemical; details: 10 μM ATP
T1 construct: purchased Reaction Biology (contract research service)
T1 sequence (P36888 27-993 D835Y): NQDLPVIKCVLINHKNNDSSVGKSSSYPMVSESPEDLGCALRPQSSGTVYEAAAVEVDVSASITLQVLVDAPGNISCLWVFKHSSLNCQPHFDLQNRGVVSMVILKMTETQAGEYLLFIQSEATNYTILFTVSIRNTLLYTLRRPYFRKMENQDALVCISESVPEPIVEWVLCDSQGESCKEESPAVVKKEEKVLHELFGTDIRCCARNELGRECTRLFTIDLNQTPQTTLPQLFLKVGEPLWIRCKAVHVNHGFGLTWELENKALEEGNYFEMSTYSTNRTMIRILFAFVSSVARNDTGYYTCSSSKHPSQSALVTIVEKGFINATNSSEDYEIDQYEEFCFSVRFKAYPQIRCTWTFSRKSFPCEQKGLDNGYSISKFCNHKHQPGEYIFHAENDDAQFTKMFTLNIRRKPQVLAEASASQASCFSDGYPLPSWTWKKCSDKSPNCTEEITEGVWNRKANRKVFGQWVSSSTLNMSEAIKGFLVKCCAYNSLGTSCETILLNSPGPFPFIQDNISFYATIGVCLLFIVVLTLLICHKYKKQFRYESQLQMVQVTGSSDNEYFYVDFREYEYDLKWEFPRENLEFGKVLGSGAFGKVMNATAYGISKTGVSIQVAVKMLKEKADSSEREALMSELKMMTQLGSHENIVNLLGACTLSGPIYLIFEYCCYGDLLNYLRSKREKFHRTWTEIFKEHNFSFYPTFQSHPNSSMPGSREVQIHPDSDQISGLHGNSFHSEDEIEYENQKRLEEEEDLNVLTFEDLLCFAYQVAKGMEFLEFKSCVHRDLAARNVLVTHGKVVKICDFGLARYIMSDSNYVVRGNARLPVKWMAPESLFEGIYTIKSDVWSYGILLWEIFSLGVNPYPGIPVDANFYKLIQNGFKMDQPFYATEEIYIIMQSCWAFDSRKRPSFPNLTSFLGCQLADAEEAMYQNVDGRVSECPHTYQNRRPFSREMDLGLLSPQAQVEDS

Molm-14-ITD-F691L = assay: Cell viability GI50, Molm-14-ITD-F691L; assay type: cell-based; details: Homo sapiens; 72 hours
Procedure: as §1, §2

GI50 (Molm 14-ITD-D835Y): 4.3 nM
IC50 (FLT3-D835Y): < 0.5 nM
GI50 (Molm-14-ITD-F691L): 2.2 nM
SMILES: Cc1c[nH]c(CNC(=O)c2ccc(-c3nc4ccc5[nH]ncc5c4c4c3CCCC4)cc2)n1 [Compound HSK205]
phosphorylated FLT3 (phosphorylated FLT3): reduction of phosphorylated FLT3
